We go through 16 compounds from patent US20250360134A1, “6-6 OR 5-6 FUSED BICYCLIC COMPOUNDS COMPRISING A PYRI(MI)DINE RING USEFUL IN THE|TREATMENT OF INFECTIOUS DISEASES” (INSTITUT NATIONAL DE LA SANTE ET DE LA RECHERCHE MEDICALE …, priority 2020, published 2025).

Counter-ions that a name gives are not always drawn. Like-named read-outs stand apart in the source and are kept apart here.

The test system of assay [1] is T. brucei brucei AnTat 1.9. Kind of assay: In vitro antitrypanosomal activity, Alamar Blue assay. It counts as cell-based, Trypanosoma brucei brucei. The settings on record: Trypanosoma brucei, read-out: IC50 T. brucei brucei. On the procedure: The effects of the tested compounds on the growth of T. brucei brucei were assessed using an Alamar Blue® assay described in B. Raz et al., Acta Trop. 1997, 68, 139. T. brucei brucei AnTat 1.9 (IMTA, Antwerpen, Belgium) was cultured in MEM with Earle's salts, supplemented according to the protocol disclosed in T. Baltz et al., EMBO J. 1985, 4, 1273, with the following modifications: 0.5 mM mercaptoethanol (Sigma-Aldrich), 1.5 mM 1-cysteine (Sigma-Aldrich), 0.05 mM bathocuproine sulfate (Sigma-Aldrich), and 20% heat-inactivated horse serum (Gibco, France) at 37° C. and 5% CO2. Samples were incubated at an average density of 2000 parasites/well in sterile 96-well plates (Fisher, France) with various concentrations of compounds dissolved in 0.9% NaCl. All doses were tested in duplicate. Appropriate controls treated with solvents 0.9% NaCl or DMSO or with suramin, pentamidine, eflornithine, and fexinidazole (reference drugs purchased from Sigma-Aldrich and Fluorochem, UK) were added to each set of experiments. After a 69-hour incubation at 37° C., 10 μl of the viability marker Alamar Blue (Fisher) was added to each well, and the plates were incubated for 5 hour. The plates were read in a PerkinElmer ENSPIRE (Germany) microplate reader using an excitation wavelength of 530 nm and an emission wavelength of 590 nm. The IC50 was defined as the concentration of drug necessary to inhibit by 50% the activity of T. brucei brucei compared to the control. IC50 values were calculated using a non-linear regression analysis of dose-response curves performed using GraphPad Prism software (USA). IC50 values were calculated from three independent experiments.

Assay [2] has as its system human telomeric sequence F21T. Put plainly: FRET-melting, F21T. The settings on record: K+ condition, 2 μM compound, 0.2 μM oligonucleotide.
The test system of assay [3] is human duplex sequence FdxT. Kind of assay: FRET-melting, FdxT. Particulars: duplex control, K+ condition, 2 μM compound, 0.2 μM oligonucleotide.
The subject of assay [4] is Plasmodium telomeric sequence FPf1T. Put plainly: FRET-melting, FPf1T. Particulars: K+ condition, 2 μM compound, 0.2 μM oligonucleotide.
Assay [5] has as its system Plasmodium telomeric sequence FPf8T. Kind of assay: FRET-melting, FPf8T. The settings on record: K+ condition, 2 μM compound, 0.2 μM oligonucleotide.
Assay [6] relates to Trypanosoma 9 and 11 chromosomic sequence FTrypBT. Kind of assay: FRET-melting, FTrypBT. The settings on record: K+ condition, 2 μM compound, 0.2 μM oligonucleotide.
The subject of assay [7] is Plasmodium falciparum W2. Put plainly: In vitro antiplasmodial activity, SYBR Green I, strain W2.
Procedure: (§1) The in vitro antiplasmodial activities were tested over concentrations ranging from 39 to 40 μm against culture-adapted Plasmodium falciparum: reference strains 3D7 and W2. […] The parasites were cultivated in RPMI medium (Sigma-Aldrich, Lyon, France) supplemented with 0.5% Albumax I (Life Technologies Corporation, Paisley, UK), hypoxanthine (Sigma-Aldrich), and gentamicin (Sigma-Aldrich) with human erythrocytes and were incubated at 37° C. in a candle jar, as described in Desjardins R E et al., Antimicrob Agents Chemother, 1979; 16:710-18.
(§2) The P. falciparum drug susceptibility test was carried out in 96-well flat bottom sterile plates in a final volume of 250 μL. After a 48-hour incubation with the drugs, quantities of DNA in treated and control cultures of parasites in human erythrocytes were quantified using the SYBR Green I (Sigma-Aldrich) fluorescence-based method as described in Bennett T N et al, Antimicrob Agents Chemother, 2004; 48:1807-10. Briefly, after incubation, plates were frozen at −20° C. until use. Plates were then thawed for 2 hours at room temperature, and 100 μL of each homogenized culture was transferred to a well of a 96-well flat bottom sterile black plate (Nunc, Inc., Rochester, NY) that contained 100 μL of the SYBR Green I lysis buffer (2×SYBR Green, 20 mM Tris base pH 7.5, 5 mM EDTA, 0.008% w/v saponin, 0.08% w/v Triton X-100). […] Plates were incubated for 1 hour at room temperature and then read on a fluorescence plate reader (Tecan, Grödig, Austria) using excitation and emission wavelengths of 485 and 535 nm, respectively. Concentrations inhibiting 50% of the parasite's growth (half maximal inhibitory concentration or IC50 values) were then calculated from the obtained experimental results by non-linear regression analysis of data from dose-response curves, using TableCurve 2D version 5.0 software (Systat Software, San Jose, CA). IC50 values are reported as means calculated from three independent experiments, as described in H. Kaddouri et al., Antimicrob.
Assay [8] relates to Plasmodium falciparum 3D7. Put plainly: In vitro antiplasmodial activity, SYBR Green I, strain 3D7.
Procedure: as §1, §2
Setting [9] is: 69-hour incubation, Alamar Blue.
The mark [10] stands for this setting: Plasmodium falciparum, W2, 48 h, read-out: IC50 Plasmodium falciparum W2, chloroquine-resistant strain W2, 48-hour incubation.
The mark [11] stands for this setting: Plasmodium falciparum, 3D7, 48 h, read-out: IC50 Plasmodium falciparum 3D7, chloroquine-sensitive strain 3D7, 48-hour incubation.
Setting [12] is: read-out: IC50 Plasmodium falciparum 3D7, chloroquine-sensitive strain 3D7, 48-hour incubation, oxalate.
[13] abbreviates: read-out: IC50 Plasmodium falciparum W2, chloroquine-resistant strain W2, 48-hour incubation.
The mark [14] stands for this setting: read-out: IC50 Plasmodium falciparum 3D7, chloroquine-sensitive strain 3D7, 48-hour incubation.

On to `COC(=O)C(CCCCNCc1ccc(-c2nc(-c3ccc(CNCCCCC(NC(=O)OC(C)(C)C)C(=O)OC)cc3)c3ccn(C)c3n2)cc1)NC(=O)OC(C)(C)C` (stereo not drawn) [Compound 10B, 2,4-Bis{4-[(5-(tert-butoxycarbonylamino)-5-methoxycarbonyl)pentyl)aminomethyl]phenyl}-7-methyl-7H-pyrrolo[2,3-d]pyrimidine oxalate], for which the IC50 (usually the point on the concentration scale where inhibition reaches its midpoint) in assay [1] (setting [9]) was 7050 ± 660 nM; in assay [7] (setting [10]) it was 4360 ± 1700 nM; in assay [8] (setting [11]), 610 ± 240 nM. The “FRET-melting values in K+ conditions at 2 μM ΔTm F21T” value in assay [2] stood at 11.8 °C. For the same compound, the “FRET-melting values in K+ conditions at 2 μM ΔTm FdxT” value in assay [3] is −1.0 °C. In assay [4], the “FRET-melting values in K+ conditions at 2 μM ΔTm FPf1T” value came out at 10.1 °C. For the same compound, the “FRET-melting values in K+ conditions at 2 μM ΔTm FPf8T” value in assay [5] is 11.0 °C. The “FRET-melting values in K+ conditions at 2 μM ΔTm FtryBT” value in assay [6] worked out at 8.9 °C.

`COC(=O)C(N)CCCCNCc1ccc(-c2nc(-c3ccc(CNCCCCC(N)C(=O)OC)cc3)c3ccn(C)c3n2)cc1` (stereo not drawn) [Compound 11B, 2,4-Bis{4-[(5-amino-5-(methoxycarbonyl)pentyl)aminomethyl]phenyl}-7-methyl-7H-pyrrolo[2,3-d]pyrimidine oxalate]: the IC50 was 5040 ± 730 nM in assay [1] (setting [9]), 70 ± 10 nM in assay [7] (setting [10]) and over 40000 nM in assay [8] (setting [11]).

In the case of `CN(C)CCCNCc1ccc(-n2ccc3c(-c4ccccc4)nc(-c4ccccc4)nc32)cc1` [Compound 12B, 7-(4-[(3-Dimethylaminopropyl)aminomethyl]phenyl)-2,4-diphenyl-7H-pyrrolo[2,3-d]pyrimidine oxalate], the 50% inhibitory concentration (IC50) in assay [7] (setting [10]) worked out at 9140 nM; in assay [8] (setting [11]) it was 380 ± 250 nM.

For `CN1CCN(CCCNCc2ccc(-c3nc(Cl)nc4c3ccn4-c3ccccc3)cc2)CC1` [Compound 18B, 2-chloro-4-{4-[(3-(4-methylpiperazin-1-yl)propyl)aminomethyl]phenyl}-7-phenyl-7H-pyrrolo[2,3-d]pyrimidine oxalate], the IC50 in assay [1] (69 h) was 60 nM; in assay [7] (setting [10]), 6960 ± 650 nM; in assay [8] (setting [11]), 680 ± 130 nM.

In the case of `CN(C)CCCNCc1cc(-c2nc(Cl)nc3c2ccn3-c2ccccc2)cs1` [Compound 20B, 2-Chloro-4-{2-[(3-dimethylaminopropyl)aminomethyl]thien-4-yl}-7-phenyl-7H-pyrrolo[2,3-d]pyrimidine oxalate], the IC50 in assay [1] (69 h) came to 80 nM; in assay [7] (setting [10]) it was 13600 ± 430 nM; in assay [8] (setting [11]), 590 ± 170 nM.

For `CN(C)CCCNCc1ccc(-n2ccc3c(-c4ccccc4)nc(Cl)nc32)cc1` [Compound 22B, 2-Chloro-7-(4-[(3-dimethylaminopropyl)aminomethyl]phenyl)-4-phenyl-7H-pyrrolo[2,3-d]pyrimidine oxalate], the IC50 in assay [1] (69 h) stood at 30 nM; in assay [7] (setting [10]) it was 730 ± 220 nM; in assay [8] (setting [11]), 800 ± 410 nM.

On to `CN1CCN(CCCNCc2ccc(-n3ccc4c(-c5ccccc5)nc(Cl)nc43)cc2)CC1` [Compound 23B, 2-Chloro-7-(4-[(3-(4-methylpiperazin-1-yl)propyl)aminomethyl]phenyl)-4-phenyl-7H-pyrrolo[2,3-d]pyrimidine oxalate], for which the values for the half-inhibitory concentration (IC50) in assay [7] (setting [10]) and in assay [8] (setting [11]) were 9140 nM and 380 ± 250 nM, respectively.

In the case of `CN(C)CCCNCc1ccc(-c2nc(-c3ccc(CNCCCN(C)C)cc3)c3cnn(-c4ccccc4)c3n2)cc1` [Compound 36B, 4,6-Bis{4-[(3-dimethylaminopropyl)aminomethyl]phenyl}-1-phenyl-1H-pyrazolo[3,4-d]pyrimidine oxalate], the values for the IC50 in assay [7] (setting [10]) and in assay [8] (setting [11]) were 930 ± 150 nM and 2510 ± 250 nM, respectively.

As to `CN(C)CCCCNCc1ccc(-c2nc(-c3ccc(CNCCCCN(C)C)cc3)c3cnn(-c4ccccc4)c3n2)cc1` [Compound 37B, 4,6-Bis{4-[(4-dimethylaminobutyl)aminomethyl]phenyl}-1-phenyl-1H-pyrazolo[3,4-d]pyrimidine], the 50% inhibitory concentration (IC50) in assay [7] (setting [10]) was 1180 ± 120 nM.

Take `CN(C)CCCCCNCc1ccc(-c2nc(-c3ccc(CNCCCCCN(C)C)cc3)c3cnn(-c4ccccc4)c3n2)cc1` [Compound 38B, 4,6-Bis{4-[(5-dimethylaminopentyl)aminomethyl]phenyl}-1-phenyl-1H-pyrazolo[3,4-d]pyrimidine oxalate]: the IC50 came out at 4730 ± 280 nM in assay [7] (read-out: IC50 Plasmodium falciparum W2, chloroquine-resistant strain W2, 48-hour incubation, oxalate) and 350 ± 90 nM in assay [8] (setting [12]).

With `CN1CCN(CCCCNCc2ccc(-c3nc(-c4ccc(CNCCCCN5CCN(C)CC5)cc4)c4cnn(-c5ccccc5)c4n3)cc2)CC1` [Compound 39B, 4,6-Bis{4-[(4-(4-methylpiperazin-1-yl)butyl)aminomethyl]phenyl}-1-phenyl-1H-pyrazolo[3,4-d]pyrimidine oxalate], the IC50 in assay [7] (setting [10]) stood at 1530 ± 90 nM; in assay [8] (setting [12]) it was 1830 ± 470 nM.

With `CN(C)CCCCNCc1ccc(-c2nc(-c3ccc(CNCCCCN(C)C)cc3)c3ncn(-c4ccccc4)c3n2)cc1` [Compound 40B, 2,4-Bis{4-[(4-dimethylaminobutyl)aminomethyl]phenyl}-7-phenyl-7H-imidazo[4,5-d]pyrimidine oxalate], the “FRET-melting values in K+ conditions at 2 μM ΔTm F21T” value in assay [2] amounted to 31.68 °C. In assay [3], the “FRET-melting values in K+ conditions at 2 μM ΔTm FdxT” value came to 8.51 °C. Also, the “FRET-melting values in K+ conditions at 2 μM ΔTm FPf1T” value in assay [4] amounted to 35.1 °C. Also, in assay [5], the “FRET-melting values in K+ conditions at 2 μM ΔTm FPf8T” value was 33.9 °C. In assay [6], the “FRET-melting values in K+ conditions at 2 μM ΔTm FtryBT” value was found to be 30.3 °C. The IC50 worked out at 1770 ± 90 nM in assay [7] (setting [10]) and 4740 ± 900 nM in assay [8] (setting [11]).

Take `CN(C)CCCCCNCc1ccc(-c2nc(-c3ccc(CNCCCCCN(C)C)cc3)c3cnn(-c4ccccc4)c3n2)cc1` [Compound 41B]: the “FRET-melting values in K+ conditions at 2 μM ΔTm F21T” value in assay [2] amounted to 34.0 °C. Further, in assay [3], the “FRET-melting values in K+ conditions at 2 μM ΔTm FdxT” value came out at 9.7 °C. In addition, in assay [4], the “FRET-melting values in K+ conditions at 2 μM ΔTm FPf1T” value was 36.4 °C. The “FRET-melting values in K+ conditions at 2 μM ΔTm FPf8T” value in assay [5] was found to be 34.9 °C. Moreover, the “FRET-melting values in K+ conditions at 2 μM ΔTm FtryBT” value in assay [6] was 33.0 °C. The 50% inhibitory concentration (IC50) in assay [7] (setting [13]) stood at 1990 ± 120 nM; in assay [8] (setting [14]), 1990 ± 900 nM.

With `CN1CCN(CCCCNCc2ccc(-c3nc(-c4ccc(CNCCCCN5CCN(C)CC5)cc4)c4cnn(-c5ccccc5)c4n3)cc2)CC1` [Compound 42B], the “FRET-melting values in K+ conditions at 2 μM ΔTm F21T” value in assay [2] was found to be 30.2 °C. For the same compound, the “FRET-melting values in K+ conditions at 2 μM ΔTm FdxT” value in assay [3] was determined as 6.8 °C. Moreover, in assay [4], the “FRET-melting values in K+ conditions at 2 μM ΔTm FPf1T” value came out at 33.2 °C. For the same compound, in assay [5], the “FRET-melting values in K+ conditions at 2 μM ΔTm FPf8T” value amounted to 32.1 °C. Besides, in assay [6], the “FRET-melting values in K+ conditions at 2 μM ΔTm FtryBT” value was 30. ° C. The half-maximal inhibitory concentration (IC50) in assay [7] (setting [13]) was 2370 ± 130 nM; in assay [8] (setting [14]) it was 700 ± 150 nM.

For `CN(C)CCCNCc1ccc(-c2nc(Cl)nc3c2ncn3-c2ccccc2)cc1` [Compound 43B, 2-Chloro-4-{4-[(3-dimethylaminopropyl)aminomethyl]phenyl}-7-phenyl-7H-imidazo[4,5-d]pyrimidine oxalate], the “FRET-melting values in K+ conditions at 2 μM ΔTm F21T” value in assay [2] was 1.7 °C. The “FRET-melting values in K+ conditions at 2 μM ΔTm FdxT” value in assay [3] came to 0.04 °C. In addition, in assay [4], the “FRET-melting values in K+ conditions at 2 μM ΔTm FPf1T” value came to 2.4 °C. The “FRET-melting values in K+ conditions at 2 μM ΔTm FPf8T” value in assay [5] was 3.3 °C. Besides, in assay [6], the “FRET-melting values in K+ conditions at 2 μM ΔTm FtryBT” value came to 2.7 °C. Moreover, the concentration for half-maximal inhibition (IC50) in assay [7] (setting [10]) came out at 830 ± 170 nM; in assay [8] (setting [11]), 1530 ± 390 nM.

On to `CN(C)CCCNCc1ccc(-c2cc(Cl)nc3c2ccn3-c2ccccc2)cc1` [Compound 47B, 6-Chloro-4-{4-[(3-dimethylaminopropyl)aminomethyl]phenyl}-1-phenyl-1H-pyrrolo[2,3-b]pyridine oxalate], for which the “FRET-melting values in K+ conditions at 2 μM ΔTm F21T” value in assay [2] was determined as 2.8 °C. Besides, the “FRET-melting values in K+ conditions at 2 μM ΔTm FdxT” value in assay [3] was −0.2 °C. In addition, in assay [4], the “FRET-melting values in K+ conditions at 2 μM ΔTm FPf1T” value is 3.3 °C. In addition, in assay [5], the “FRET-melting values in K+ conditions at 2 μM ΔTm FPf8T” value came out at 4.0 °C. Besides, the “FRET-melting values in K+ conditions at 2 μM ΔTm FtryBT” value in assay [6] is 4.3 °C. For the same compound, the IC50 in assay [7] (setting [10]) was 720 ± 300 nM; in assay [8] (setting [11]), 150 ± 20 nM.
